Columns and labels:
ear of a normal mouse = experiment: Influence of repeated application on the ear thickness of a normal mouse; type: in vivo; settings: nine times in total, 2 hours after final application
Procedure: The therapeutic agent for dermatitis according to the present invention or the positive control (steroid preparation) was applied twice daily to the right ear of a normal mouse for a total of nine times and, 2 hours after the final application, the thickness of the ear was measured.

[1] = molecular target: T1, phosphodiesterase type II (PDE II) (Homo sapiens, UniProt O00408); experiment: Inhibitory action against phosphodiesterase type II; type: biochemical; settings: 100 μM; PDE II from human platelets
T1 construct: phosphodiesterase type II (PDE II) partially purified from human platelets; from tissue; host or cells: human platelets
Source text: (§1) The inhibitory action of the compounds of the present invention against activities of various phosphodiesterase (PDE) isozymes were investigated using the conventional method. Each of the inhibitory action of the compounds of the present invention on the activities of phosphodiesterase type II (PDE II) partially purified from human platelets, phosphodiesterase type III […] partially purified from human platelets, phosphodiesterase type IV (PDE IV) partially purified from human U937 promonocytic leukemia cells and phosphodiesterase type V (PDE V) partially purified from human platelets were measured.

[2] = test system: antigen-induced swelling reaction in a mouse ear; experiment: Suppressive action against antigen-induced swelling reaction in a mouse ear; type: in vivo, BALB/c female mice
Procedure: Seven week old BALB/c female (SPF) mice of were selected as subjects. According to a method of Tanaka, et al. (Allergy, 46, pages 42-48(1997)), egg white albumin (final concentration: 2 μg/mL) and aluminum hydroxide gel (final concentration: 10 mg/mL) were suspended in physiological saline and 0.5 mL of the suspension was administered to effect intraperitoneal sensitization on the first day of the test. On the 14th day of the test, an additional sensitization was carried out under the same conditions. Further, on the 28th day of the test, 25 μL of egg albumin (a 20 μg/mL solution in physiological saline) was intradermally administered to the right ear of a mouse to induce a swelling reaction.
This swelling reaction reached its peak at 4 hours after the challenge by the antigen. Even after 24 to 48 hours, a significant swelling reaction was noted as compared with the control in which antigen was merely challenged (not sensitized). […] On the contrary, the swelling from 24 to 48 hours after the challenge is thought to be the so-called delayed-type swelling reaction accompanied by infiltration of eosinophils, neutrophils and lymphocytes. In addition, a flare-up reaction having a peak at 24 hours after the challenge appeared on the ear of the antigen-induced site. Like swelling, flare-up is an important symptom of inflammation. Although the mechanism of the flare-up reaction is ambiguous, it may be a flare-up reaction of a delayed type in view of the time course of its expression. As such, this model animal in which the inflammation of both immediate and delayed types are induced is appropriate as a model animal for atopic dermatitis. In the following experiment, the effectiveness of the therapeutic agent for dermatitis according to the present invention was tested using the said model animal.
Each of a vehicle (control) and a test agent (containing the compound of the present invention or a positive control) was applied to the antigen-induced site (right auricle) of a mouse. A swelling reaction was induced in accordance with Example 2 at 2 hours before and 4 hours after the challenge. After the challenge, the thickness of the swelling induced ear was measured by a Dial Thickness Gauge (manufactured by Ozaki Seisakusho). The intensity of the reaction was expressed in terms of an increase in the auricle thickness by deducting the thickness (early value) measured before the challenge from the thickness of the swelling induced ear. The suppression rate of the test drug for ear swelling was calculated by the following formula:
Suppression Rate (%)=100 ×[(Ear Thickness Increase of Vehicle-Only-Control)—(Ear Thickness Increase of the Test Group)]/[(Ear Thickness Increase of the Vehicle-Only-Control)—(Ear Thickness Increase of the Challenge-Only-Group)]

[3] = test system: guinea pig eosinophils in the abdominal cavity; experiment: Suppression of LTB4-induced chemotaxis of guinea pig eosinophils (modified Boyden chamber); type: cell-based, Hartley male guinea pigs; settings: Cavia porcellus, Eosinophil; chemotaxis induced by 10^-7 M LTB4, 37° C., 2 hours; 5 trials
Procedure: The suppressive effect of the compounds of the present invention on the leukotriene B4 or LTB4 induced chemotaxis of guinea pig eosinophils in the abdominal cavity were investigated using a modified Boyden chamber method. The guinea pig eosinophils in the abdominal cavity were prepared using Hartley male guinea pigs according to the conventional method. The chemotaxis of the eosinophils was induced by 10^−7 M of leukotriene B4 or LTB4 in 37° C. for 2 hours in the presence or absence of the test drug (the therapeutic agent for dermatitis of the present invention). After the chemotaxis cells were fixed and stained using the Giemsa stain, the number of chemotaxis cells was counted in visual fields of a microscope (×400). The experiments were repeated several times and the suppression rate of the test drug was calculated by the following formula:
Suppression Rate (%)=100×[(the number of chemotaxis eosinophils in control group)—(the number of chemotaxis eosinophils in the test drug group)]/[(the number of chemotaxis eosinophils in control group)—(the number of spontaneous chemotaxis eosinophils)]
The 50% inhibitory concentration (IC50) was calculated from the regression line obtained by the least square method based on the calculated suppression rates.

[4] = test system: phosphodiesterase type IV (PDE IV); experiment: Inhibitory action against phosphodiesterase type IV; type: biochemical, human
Source text: as §1

[5] = molecular target: T2, phosphodiesterase type III (Homo sapiens, UniProt Q14432); experiment: Inhibitory action against phosphodiesterase type III; type: biochemical; settings: 100 μM; PDE III from human platelets
T2 construct: phosphodiesterase type III […] partially purified from human platelets; from tissue; host or cells: human platelets
Source text: as §1

T1 sequence (O00408 whole entry): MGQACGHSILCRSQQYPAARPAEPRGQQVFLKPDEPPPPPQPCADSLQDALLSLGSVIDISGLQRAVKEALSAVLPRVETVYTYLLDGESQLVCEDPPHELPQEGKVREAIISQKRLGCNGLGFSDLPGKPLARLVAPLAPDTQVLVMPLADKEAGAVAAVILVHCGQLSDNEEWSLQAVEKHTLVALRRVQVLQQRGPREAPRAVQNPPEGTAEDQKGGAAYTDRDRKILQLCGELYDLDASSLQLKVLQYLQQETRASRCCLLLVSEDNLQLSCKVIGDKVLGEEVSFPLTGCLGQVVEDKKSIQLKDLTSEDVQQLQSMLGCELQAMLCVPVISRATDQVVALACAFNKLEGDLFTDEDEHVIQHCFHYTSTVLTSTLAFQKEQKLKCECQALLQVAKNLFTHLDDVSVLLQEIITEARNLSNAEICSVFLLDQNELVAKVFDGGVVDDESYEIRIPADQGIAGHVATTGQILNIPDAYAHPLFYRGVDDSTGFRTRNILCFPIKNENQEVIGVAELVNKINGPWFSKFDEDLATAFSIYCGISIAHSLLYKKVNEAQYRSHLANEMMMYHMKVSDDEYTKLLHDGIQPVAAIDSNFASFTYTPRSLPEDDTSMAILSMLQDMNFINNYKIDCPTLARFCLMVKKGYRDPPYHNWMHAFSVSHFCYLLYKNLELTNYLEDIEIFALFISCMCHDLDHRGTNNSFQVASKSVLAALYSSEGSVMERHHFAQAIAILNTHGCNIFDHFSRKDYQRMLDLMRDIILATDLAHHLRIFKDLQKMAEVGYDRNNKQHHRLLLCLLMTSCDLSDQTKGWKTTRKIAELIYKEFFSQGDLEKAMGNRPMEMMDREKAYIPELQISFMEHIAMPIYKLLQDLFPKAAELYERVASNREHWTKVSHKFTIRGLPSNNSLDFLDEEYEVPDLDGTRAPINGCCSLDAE
T2 sequence (Q14432 whole entry): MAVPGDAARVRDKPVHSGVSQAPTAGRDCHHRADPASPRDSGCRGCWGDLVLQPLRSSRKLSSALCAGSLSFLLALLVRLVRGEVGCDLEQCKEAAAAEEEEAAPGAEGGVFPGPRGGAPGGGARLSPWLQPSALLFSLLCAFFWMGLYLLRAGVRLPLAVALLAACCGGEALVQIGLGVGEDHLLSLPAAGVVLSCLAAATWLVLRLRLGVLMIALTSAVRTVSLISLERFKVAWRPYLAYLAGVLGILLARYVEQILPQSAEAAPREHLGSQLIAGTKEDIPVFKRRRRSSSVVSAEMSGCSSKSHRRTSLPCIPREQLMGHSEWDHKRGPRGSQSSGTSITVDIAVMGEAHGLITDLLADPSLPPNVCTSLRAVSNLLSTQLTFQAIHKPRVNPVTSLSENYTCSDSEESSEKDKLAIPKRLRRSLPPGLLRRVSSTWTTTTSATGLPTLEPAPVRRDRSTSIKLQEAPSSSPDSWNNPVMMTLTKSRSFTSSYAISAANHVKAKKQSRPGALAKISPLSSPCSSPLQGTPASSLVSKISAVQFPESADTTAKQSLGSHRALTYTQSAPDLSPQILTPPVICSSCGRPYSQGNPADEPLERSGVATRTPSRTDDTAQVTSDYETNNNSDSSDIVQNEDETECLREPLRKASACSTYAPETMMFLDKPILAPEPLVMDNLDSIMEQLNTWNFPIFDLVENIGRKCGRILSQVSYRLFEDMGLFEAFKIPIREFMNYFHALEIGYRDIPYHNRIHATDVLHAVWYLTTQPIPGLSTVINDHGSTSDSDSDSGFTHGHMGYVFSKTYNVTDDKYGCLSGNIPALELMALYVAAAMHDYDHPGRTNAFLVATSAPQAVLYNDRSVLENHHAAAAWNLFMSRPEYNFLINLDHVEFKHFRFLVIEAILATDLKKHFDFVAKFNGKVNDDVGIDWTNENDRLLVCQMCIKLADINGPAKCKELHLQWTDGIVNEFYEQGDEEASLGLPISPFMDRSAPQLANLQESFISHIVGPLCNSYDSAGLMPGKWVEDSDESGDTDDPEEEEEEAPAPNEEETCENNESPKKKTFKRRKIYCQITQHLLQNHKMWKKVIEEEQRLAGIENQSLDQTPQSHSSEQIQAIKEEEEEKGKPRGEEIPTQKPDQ

Ear Thickness (ear of a normal mouse; 3% ointment applied twice daily): 22.3 ± 0.2 × 0.01 mm
Ear Thickness (ear of a normal mouse; 10% ointment applied twice daily): 22.3 ± 0.5 × 0.01 mm
melting point: 261 to 262 °C
suppression activity against PDE II [1]: 6%
IC50 [3]: 1900 ± 400 nM
dose dependence of PDE IV inhibitory effect [4]: dose dependent
suppression activity against PDE IV ([4]; 100 μM, PDE IV from human U937 promonocytic leukemia cells): 82%
PDE isozyme selectivity ([4]; PDE IV versus PDE II, III and V at 100 μM): PDE IV selective inhibitory effect
suppression activity against PDE III [5]: 22%
Structure (SMILES): Nc1ccc2c(=O)n(Cc3ccccc3)c(=O)n(-c3ccccc3)c2n1 [Compound 1, 7-amino-3-benzyl-1,2,3,4-tetrahydro-1-phenylpyrido[2,3-d]pyrimidin-2,4-dione]
Ear Thickness Increase at 1 hr after Challenge ([2]; Table 1, 1% ointment): 6.3 ± 1.4 × 0.01 mm
Suppression Rate of ear thickness increase at 1 hr after Challenge ([2]; Table 1, 1% ointment): (106.1%)
Ear Thickness Increase at 4 hr after Challenge ([2]; Table 1, 1% ointment): 18.0 ± 0.9 × 0.01 mm
Suppression Rate of ear thickness increase at 4 hr after Challenge ([2]; Table 1, 1% ointment): (34.0%)
Ear Thickness Increase at 8 hr after Challenge ([2]; Table 1, 1% ointment): 16.0 ± 0.4 × 0.01 mm
Suppression Rate of ear thickness increase at 8 hr after Challenge ([2]; Table 1, 1% ointment): (26.0%)
Ear Thickness Increase at 24 hr after Challenge ([2]; Table 1, 1% ointment): 9.3 ± 1.1 × 0.01 mm
Suppression Rate of ear thickness increase at 24 hr after Challenge ([2]; Table 1, 1% ointment): (51.3%)
Ear Thickness Increase at 48 hr after Challenge ([2]; Table 1, 1% ointment): 6.8 ± 1.0 × 0.01 mm
Suppression Rate of ear thickness increase at 48 hr after Challenge ([2]; Table 1, 1% ointment): (47.8%)
Ear Thickness Increase at 1 hr after Challenge ([2]; Table 1, 3% ointment): 5.3 ± 0.5 × 0.01 mm
Suppression Rate of ear thickness increase at 1 hr after Challenge ([2]; Table 1, 3% ointment): (136.4%)
Ear Thickness Increase at 4 hr after Challenge ([2]; Table 1, 3% ointment): 2.3 ± 0.9 × 0.01 mm
Suppression Rate of ear thickness increase at 4 hr after Challenge ([2]; Table 1, 3% ointment): (18.4%)
Ear Thickness Increase at 8 hr after Challenge ([2]; Table 1, 3% ointment): 15.8 ± 1.4 × 0.01 mm
Suppression Rate of ear thickness increase at 8 hr after Challenge ([2]; Table 1, 3% ointment): (27.2%)
Ear Thickness Increase at 24 hr after Challenge ([2]; Table 1, 3% ointment): 7.8 ± 0.9 × 0.01 mm
Suppression Rate of ear thickness increase at 24 hr after Challenge ([2]; Table 1, 3% ointment): (61.3%)
Ear Thickness Increase at 48 hr after Challenge ([2]; Table 1, 3% ointment): 5.3 ± 0.9 × 0.01 mm
Suppression Rate of ear thickness increase at 48 hr after Challenge ([2]; Table 1, 3% ointment): (64.1%)
Ear Thickness Increase at 4 hr after Challenge ([2]; Table 2, 0.3% ointment): 20.3 ± 2.4 × 0.01 mm
Suppression Rate of ear thickness increase at 4 hr after Challenge ([2]; Table 2, 0.3% ointment): (18.7%)
Ear Thickess Increase at 24 hr after Challenge ([2]; Table 2, 0.3% ointment): 13.5 ± 1.3 × 0.01 mm
Suppression Rate of ear thickness increase at 24 hr after Challenge ([2]; Table 2, 0.3% ointment): (19.4%)
Ear Thickness Increase at 4 hr after Challenge ([2]; Table 2, 3% ointment): 13.3 ± 0.3 × 0.01 mm
Suppression Rate of ear thickness increase at 4 hr after Challenge ([2]; Table 2, 3% ointment): (49.8%)
Ear Thickess Increase at 24 hr after Challenge ([2]; Table 2, 3% ointment): 9.3 ± 1.7 × 0.01 mm
Suppression Rate of ear thickness increase at 24 hr after Challenge ([2]; Table 2, 3% ointment): (46.5%)
